Each block holds one molecule with its values, some of them ahead of it.
What was measured:
[1] = Hydrolysis of latanoprost to latanoprost acid in porcine vitreous; assay type: in vitro ADME
Protocol: Porcine vitreous was mixed with Hanks' balanced salt solution containing 50 mM Hepes (HBSS-buffer, pH 7.4) at and vitreous mix (200 μl) was pipetted to 96-well plates. The plates were incubated at +37° C. and 5% CO2 with mild shaking for one hour to equilibrate the pH of vitreous into neutral range (pH 7.3-7.5). After incubation, 50 μl of 50 μg/mL latanoprost was added to plates and mixed. The final vitreous/buffer ratio was 1:1 and latanoprost concentration 10 μg/mL Latanoprost was incubated in vitreous at +37° C. and 5% CO2 with mild shaking and samples were collected at time points (0, 1, 2, 4, 6, 24, 29, 48 hours). At each time point the 150 μl of the sample was mixed by vortexing with the 150 μl acetonitrile. The samples were stored at −20° C. until HPLC analysis.
(§1) Hydrolysis of latanoprost was evaluated in buffer and in vitreous with pH adjusted to 7.4.
First hydrolysis of latanoprost was evaluated in buffer and in vitreous with pH adjusted to 7.4 and non pH adjusted.

[2] = Chemical stability of latanoprost in HBSS-buffer; assay type: physicochemical; conditions: HBSS-buffer pH 7.4, +37° C., 48 h
Protocol: Chemical stability of latanoprost was studied simultaneously in HBSS-buffer, pH 7.4, using the same protocol but replacing the vitreous with the buffer.
as §1

[3] = Drug release from implant in porcine vitreous vs. PBS; conditions: 35.5° C., 35% PLGA9010/60% DMSO/4% b-HPCD, 180 μg latanoprost
Protocol: These tests were carried out to ensure that the latanoprost released from the implant would go through hydrolysis to latanoprost acid, which is the active form of the molecule. Purpose of this study was also study the conversion rate of latanoprost to latanoprost acid. In addition, the release of latanoprost from ReBio test formulations was evaluated in vitreous vs. in PBS.
Next the drug release from implant was also tested in porcine vitreous vs. PBS(=phosphate buffered saline).
Formulation composition in this example was 35% PLGA9010/60% DMSO/4% b-HPCD—180 μg Latanoprost.

[4] = system: rat eyes; assay: Tolerability of intravitreally injected DMSO in rat eyes; assay type: in vivo; conditions: intravitreal, 3 μl, 60%, 1/10 and 1/100 dilution, monitored two weeks
Protocol: In order to test the tolerability of DMSO in eye, DMSO (USP, Ph. Eur.) was injected to the rat eyes intravitreally using 34 G needle The injected volume was 3 μl and three concentrations were injected; 60%, 1/10 dilution, 1/100 dilution. Used Ph. Eur. grade DMSO was 0.2 μm Filter sterilized in Class 5 isolator before the injection.
The rats were monitored for two weeks using the following endpoints: • fundus imaging, including blood vessels • cloudiness and other symptoms in the anterior part of the eye • optic nerve head • state of the vasculature in the posterior eye segment (FAG) • ERG • intraocular pressure • retinal thickness with OCT • histology (in the end)

[5] = Solubility of regorafenib in water and PBS; assay type: physicochemical
Protocol: Solubility of regorafenib in water and PBS is negligible. Thus, Tween80 was added in PBS to increase solubility in the dissolution media. Regorafenib in vitro release studies from PGLA/DMSO ISFI were carried out in sink conditions, 2-5 ml PBS pH 7.2 (+Tween80 0.05%) in plastic and glass vessels at 35.5° C. (estimated at 10 mm depth in eye) and 60 rpm, orbit 61 mm in dark.

amount of latanoprost acid in vitreous over time ([1]; porcine vitreous, 48 h experiment): steadily increased | latanoprost acid formation in mere buffer [2]: No latanoprost acid was formed | conversion of released latanoprost to acid form in PBS [3]: did not change to its acid form
Compound: CC(C)OC(=O)CCC/C=C\C[C@@H]1[C@@H](CC[C@@H](O)CCc2ccccc2)[C@H](O)C[C@@H]1O [latanoprost, Latanoprost]
rate constant of latanoprost acid formation in vitreous (zero-order kinetics) ([1]; porcine vitreous/HBSS buffer 1:1, pH adjusted to 7.4, +37° C., latanoprost 10 μg/mL, 48 h): 0.111 µg/h

Compound: C[S+](C)[O-] [DMSO, dimethylsulfoxide]
adverse effects in eye [4]: No adverse effect

solubility in water and PBS [5]: negligible
Compound: CNC(=O)c1cc(Oc2ccc(NC(=O)Nc3ccc(Cl)c(C(F)(F)F)c3)c(F)c2)ccn1 [regorafenib, Regorafenib]

Reference: US20240226053A9, “Compositions for ophthalmic care” (ReBio Technologies Oy, priority 2021, published 2024)
